The text below walks through data of patent US9630958B2, “Triazine compounds” (Sphaera Pharma Pte. Ltd., priority 2012, dated 2017).

Molecules are shown by their SMILES.

One assay has as its target T1, Recombinant mTOR (FRAP1) (Homo sapiens, UniProt P42345).
T1 construct: purchased Invitrogen
Nature of the assay: mTOR in vitro kinase assay (TR-FRET, phosphorylation of GFP-4E-BP1). Type of assay: biochemical. To be noted: for IC50: 8 μM ATP, 400 nM GFP-4E-BP1; for inhibition at 1 µM: 1 uM compound, read-out: mTOR % Inhib@1 uM. How it is done:
Compounds were evaluated for mTOR activity using an in vitro kinase assay.
mTOR activity is measured in vitro by determining the level of phosphorylation of the protein substrate 4EBP-1. The phosphorylation of GFP-4E-BP1 at threonine residue is recognized by Ab Tb-Anti-p4EBP1, which results in time resolved fluorescence energy transfer (TR-FRET) between GFP and Terbium in the Ab-Protein complex.
Recombinant mTOR (FRAP1), Kinase reaction buffer, GFP-4E-BP1 and LanthaScreen Tb-anti-4E-BP1 (pThr46), TR FRET dilution buffer, Kinase Quench Buffer were obtained from Invitrogen.
Kinase reactions were performed in 10 μl volume in Corning white 384 well plates. […] The reaction was initiated by the addition of substrate (GFP-4E-BP1) and ATP at a final conc. of 400 nM and 8 μM ATP in the reaction respectively. The kinase reaction was allowed to proceed for 1 hour at room temperature before a 10 μL preparation of kinase quench buffer and Tb-labeled Antibody in TR-FRET dilution buffer was added. The final concentration of the antibody in the assay well is 2 nM and the final concentration of EDTA is 10 mM. The plate was incubated at room temperature for 1 h.
(§1) FRET signal was read in Envision Multilabel Reader with the following filters:
Excitation-330 nm and Emission 486 nm (donor) and 520 nm (acceptor).
TR FRET Ratio (Fluorescence 520 nm/Fluorescence 486 nm) was plotted against the concentration of inhibitor and data was fit to Non Linear Regression curve fit (sigmoidal dose response curve with variable slope-four parameters) using Graph Pad Prism 5.
A general note: TR-FRET usually uses a lanthanide donor and a delayed reading to cut background.

In assay [1] the target is T2, PI3 Kinase alpha (p110 alpha/p85 alpha) (Homo sapiens, UniProt P42336).
T2 construct: purchased Invitrogen
T2 sequence (P42336 whole entry): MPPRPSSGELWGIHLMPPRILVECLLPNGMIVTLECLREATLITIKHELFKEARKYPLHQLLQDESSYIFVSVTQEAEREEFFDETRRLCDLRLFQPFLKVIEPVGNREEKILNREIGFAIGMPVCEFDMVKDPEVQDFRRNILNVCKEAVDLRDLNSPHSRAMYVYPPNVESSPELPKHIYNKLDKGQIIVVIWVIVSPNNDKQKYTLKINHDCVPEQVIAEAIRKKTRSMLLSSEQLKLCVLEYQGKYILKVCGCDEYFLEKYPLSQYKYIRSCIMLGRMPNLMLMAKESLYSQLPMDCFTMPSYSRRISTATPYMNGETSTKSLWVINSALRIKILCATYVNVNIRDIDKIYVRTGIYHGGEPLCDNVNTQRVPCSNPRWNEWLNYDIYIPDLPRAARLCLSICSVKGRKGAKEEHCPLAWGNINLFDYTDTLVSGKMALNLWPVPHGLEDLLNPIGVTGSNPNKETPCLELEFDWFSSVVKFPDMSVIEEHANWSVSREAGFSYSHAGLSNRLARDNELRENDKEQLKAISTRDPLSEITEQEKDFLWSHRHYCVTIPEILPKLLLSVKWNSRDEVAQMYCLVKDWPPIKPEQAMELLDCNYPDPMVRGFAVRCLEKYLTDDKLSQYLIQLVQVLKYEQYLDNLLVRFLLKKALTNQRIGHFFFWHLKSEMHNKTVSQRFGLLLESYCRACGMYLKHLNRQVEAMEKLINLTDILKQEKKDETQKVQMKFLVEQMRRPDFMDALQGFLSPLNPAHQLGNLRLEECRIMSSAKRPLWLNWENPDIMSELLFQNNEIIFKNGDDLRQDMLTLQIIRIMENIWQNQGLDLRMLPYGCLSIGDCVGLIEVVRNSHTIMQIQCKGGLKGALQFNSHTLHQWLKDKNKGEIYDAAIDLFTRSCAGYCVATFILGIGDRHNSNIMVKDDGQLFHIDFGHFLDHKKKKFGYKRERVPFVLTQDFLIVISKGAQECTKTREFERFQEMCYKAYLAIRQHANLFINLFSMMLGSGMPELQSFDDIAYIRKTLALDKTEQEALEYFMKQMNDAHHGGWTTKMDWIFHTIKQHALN
T2 sequence (P27986 whole entry partner): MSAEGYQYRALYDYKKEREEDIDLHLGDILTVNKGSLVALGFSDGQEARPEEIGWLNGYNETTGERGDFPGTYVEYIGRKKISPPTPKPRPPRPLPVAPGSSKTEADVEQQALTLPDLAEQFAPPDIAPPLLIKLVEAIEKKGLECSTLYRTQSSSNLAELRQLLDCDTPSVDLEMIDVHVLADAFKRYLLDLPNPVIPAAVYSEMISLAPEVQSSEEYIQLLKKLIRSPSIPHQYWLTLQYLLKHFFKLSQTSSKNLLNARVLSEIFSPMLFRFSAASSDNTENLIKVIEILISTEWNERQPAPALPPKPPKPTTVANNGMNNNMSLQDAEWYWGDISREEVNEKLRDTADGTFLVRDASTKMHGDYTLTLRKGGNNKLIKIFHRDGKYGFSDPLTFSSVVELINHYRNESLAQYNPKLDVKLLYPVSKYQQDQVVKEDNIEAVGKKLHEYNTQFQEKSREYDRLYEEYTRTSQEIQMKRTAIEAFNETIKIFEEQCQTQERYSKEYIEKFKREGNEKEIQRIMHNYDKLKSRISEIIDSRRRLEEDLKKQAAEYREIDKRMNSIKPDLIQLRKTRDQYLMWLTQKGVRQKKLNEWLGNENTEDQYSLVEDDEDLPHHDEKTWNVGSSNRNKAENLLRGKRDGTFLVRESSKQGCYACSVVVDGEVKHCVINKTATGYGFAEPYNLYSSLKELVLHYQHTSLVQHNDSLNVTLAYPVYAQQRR
Nature of the assay: PI3K TR-FRET assay (Transcreener ADP2). Type of assay: biochemical. To be noted: for IC50: PI3K alpha, 1 μM ATP, 50 μM PIP2; for inhibition at 1 µM: 1 uM compound, read-out: PI3K % Inhib@1 uM. On the procedure: Enzymatic activity of PI3K alpha was measured using Time resolved Fluorescence resonance energy transfer (TR-FRET) assay. This assay utilizes ADP detection as a means to screen inhibitor potency of compounds. The Transcreener ADP2 TR-FRET Red Assay is a competitive immunoassay for ADP with a far-red, TR-FRET readout and it has been used for this purpose. The assay can be used for any enzyme class that produces ADP (Kinases, ATPases). It consists of ADP HiLyte647 Tracer, ADP^2 Antibody-Tb conjugate (800 nM), stop & detect buffer, 5 mM ATP, 5 mM ADP. The ADP HiLyte647 Tracer is bound to an ADP^2 Antibody-Tb conjugate. The excitation of the terbium complex in the UV range results in energy transfer to the tracer and emission at a higher wavelength after a time delay ADP produced by the target enzyme displaces the tracer which causes decrease in TR-FRET.
The reaction buffer used for the assay was 50 mM HEPES, pH 7.4.3 mM MgCl2, 0.05% CHAPS, 50 mM NaCl, 2 mM DTT, 1 mM EGTA. PI3 Kinase alpha (p110 alpha/p85 alpha) and PIP2 Substrate (diC8,) were procured from Invitrogen and Echelon respectively.
Kinase reactions were performed in 10 μl volume in Corning white 384 well plates. […] Reaction was initiated by the addition of substrate (PIP2) and ATP at final conc. of 50 μM and 1 μM ATP in the reaction respectively. Kinase reactions were allowed to proceed for 1 hour at room temperature before a 10 μL preparation of Transcreener ADP detection mix was added. Plate was incubated at room temperature for 1 hr. ADP-ATP standard curves were also prepared.
as §1
Excitation-330 nm and Emission 615 nm (donor) and 665 nm (acceptor). TR FRET Ratio (Fluorescence 665 nm/Fluorescence 615 nm) was converted to amount of product formed using the standard curve generated. Percentage inhibition was calculated and plotted against the concentration of inhibitor and data was fit to Non Linear Regression curve fit (sigmoidal dose response curve with variable slope-four parameters) using Graph pad prism 5 and IC50 was calculated for the compound.

T1 sequence (P42345 1360-2549 limits assumed): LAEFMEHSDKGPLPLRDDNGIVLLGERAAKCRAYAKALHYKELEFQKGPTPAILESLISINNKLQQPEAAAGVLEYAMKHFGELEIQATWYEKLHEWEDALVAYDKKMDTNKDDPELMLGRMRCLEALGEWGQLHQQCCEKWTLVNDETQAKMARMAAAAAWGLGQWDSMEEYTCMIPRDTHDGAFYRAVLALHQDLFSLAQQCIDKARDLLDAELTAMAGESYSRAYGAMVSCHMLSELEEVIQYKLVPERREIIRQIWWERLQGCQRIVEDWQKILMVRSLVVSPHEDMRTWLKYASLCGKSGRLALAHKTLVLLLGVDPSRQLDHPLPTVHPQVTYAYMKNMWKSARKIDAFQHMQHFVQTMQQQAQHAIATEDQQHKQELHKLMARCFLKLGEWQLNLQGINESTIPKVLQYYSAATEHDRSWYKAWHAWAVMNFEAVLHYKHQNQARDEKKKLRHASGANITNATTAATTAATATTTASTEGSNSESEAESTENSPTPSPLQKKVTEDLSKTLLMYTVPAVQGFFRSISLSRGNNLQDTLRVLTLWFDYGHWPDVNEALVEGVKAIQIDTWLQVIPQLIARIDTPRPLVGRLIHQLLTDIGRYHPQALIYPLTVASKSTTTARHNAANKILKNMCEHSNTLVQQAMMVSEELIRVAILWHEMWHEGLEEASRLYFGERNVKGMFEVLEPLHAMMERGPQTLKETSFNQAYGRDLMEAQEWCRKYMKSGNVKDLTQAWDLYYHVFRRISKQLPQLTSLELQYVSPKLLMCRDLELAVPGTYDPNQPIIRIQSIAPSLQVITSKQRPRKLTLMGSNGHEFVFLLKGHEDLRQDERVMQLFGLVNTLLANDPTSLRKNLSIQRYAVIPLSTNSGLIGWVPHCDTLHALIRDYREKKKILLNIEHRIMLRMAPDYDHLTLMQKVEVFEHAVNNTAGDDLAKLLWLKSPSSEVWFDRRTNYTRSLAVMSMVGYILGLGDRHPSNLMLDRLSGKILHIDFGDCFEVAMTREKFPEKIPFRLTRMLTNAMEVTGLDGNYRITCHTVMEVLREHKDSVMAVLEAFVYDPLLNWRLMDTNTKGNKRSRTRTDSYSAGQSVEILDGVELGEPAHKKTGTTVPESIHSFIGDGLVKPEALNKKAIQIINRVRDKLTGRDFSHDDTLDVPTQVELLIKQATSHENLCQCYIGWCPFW

Regarding `C[C@H]1COCCN1c1nc(Oc2ccc(C(=O)N(C)C)cc2F)nc(-c2cnc(N)cc2C(F)(F)F)n1` [Compound 10067, (S)-4-((4-(6-Amino-4-(trifluoromethyl)pyridine-3-yl)-6-(3-methylmorpholino)-1,3,5-triazin-2-yl)oxy)-3-fluoro-N,N-dimethylbenzamide], the IC50 (at Recombinant mTOR (FRAP1); in assay [1]) was < 1000 nM each time.
With `CN(C)C(=O)c1ccc(Oc2nc(-c3cnc(N)s3)nc(N3CCO[C@@H]4CCC[C@H]43)n2)cc1` [Compound 10132, 4-(4-(2-aminothiazol-5-yl)-6-((4aR,7aR)-hexahydrocyclopenta[b][1,4]oxazin-4(4aH)-yl)-1,3,5-triazin-2-yloxy)-N,N-dimethylbenzamide], on Recombinant mTOR (FRAP1), the inhibition at 1 µM is > 50% and the IC50 was < 1000 nM. In assay [1], the inhibition at 1 µM was < 50% and the IC50 was < 1000 nM.
In the case of `C[C@@H]1OCCN(c2nc(Oc3ccc(C(=O)N(C)C)cc3)nc(-c3cnc(N)s3)n2)[C@H]1C` [Compound 10142, 4-(4-(2-aminothiazol-5-yl)-6-((2S,3S)-2,3-dimethylmorpholino)-1,3,5-triazin-2-yloxy)-N,N-dimethylbenzamide], the IC50 at Recombinant mTOR (FRAP1) was < 1000 nM; in assay [1], > 10000 nM.
The like results for `C[C@H]1CN(c2nc(Oc3ccc(C(=O)N(C)C)cc3F)nc(-c3cnc4[nH]ccc4c3)n2)[C@@H](C)CO1` [Compound 10104, 4-((4-((2S,5S)-2,5-dimethylmorpholino)-6-(1H-pyrrolo[2,3-b]pyridine-5-yl)-1,3,5-triazin-2-yl)oxy)-3-fluoro-N,N-dimethylbenzamide] were, in that order, < 1000 nM and < 1000 nM.
In the case of `C[C@@H]1CN(c2nc(Oc3ccc(C(=O)N(C)C)cc3F)nc(-c3cnc4[nH]ccc4c3)n2)[C@@H](C)CO1` [Compound 10105, 4-((4-((2R,5S)-2,5-dimethylmorpholino)-6-(1H-pyrrolo[2,3-b]pyridine-5-yl)-1,3,5-triazin-2-yl)oxy)-3-fluoro-N,N-dimethylbenzamide], the IC50 was < 1000 nM at Recombinant mTOR (FRAP1) and > 1000 nM in assay [1].
For the molecule `C[C@H]1COCCN1c1nc(Oc2ccc(C(=O)N(C)C)cc2F)nc(-c2ccc3[nH]ncc3c2)n1` [Compound 10051, (S)-4-((4-(1H-indazol-5-yl)-6-(3-methylmorpholino)-1,3,5-triazin-2-yl)oxy)-3-fluoro-N,N-dimethylbenzamide], at Recombinant mTOR (FRAP1), the inhibition at 1 µM is > 50% and the IC50 is < 1000 nM. Moreover, in assay [1], the IC50 is > 1000 nM.
The like results for `Cc1cc(Oc2nc(-c3ccc(N)nc3)nc(N3CCOCC3)n2)ccc1C(=O)N(C)C` [Compound 10181, 4-((4-(6-aminopyridin-3-yl)-6-morpholino-1,3,5-triazin-2-yl)oxy)-N,N,2-trimethylbenzamide] were, in that order, > 50%, < 1000 nM and < 1000 nM.
Take `CN(C)C(=O)c1ccc(Oc2nc(Nc3nccs3)nc(N3CCOCC3)n2)cc1` [Compound 10191, N,N-dimethyl-4-((4-morpholino-6-(thiazol-2-ylamino)-1,3,5-triazin-2-yl)oxy)benzamide]: the inhibition at 1 µM on Recombinant mTOR (FRAP1) was < 50%. The IC50 in assay [1] is > 1000 nM.
Consider `C[C@H]1COCCN1c1nc(OC2CCN(C(=O)N(C)C)C2)nc(-c2cnc(N)s2)n1` (stereo partly drawn) [Compound 10138, 3-(4-(2-aminothiazol-5-yl)-6-((S)-3-methylmorpholino)-1,3,5-triazin-2-yloxy)-N,N-dimethylpyrrolidine-1-carboxamide], for which, on Recombinant mTOR (FRAP1), the inhibition at 1 µM was < 50% and the concentration for half-maximal inhibition (IC50) was > 1000 nM. In addition, in assay [1], the inhibition at 1 µM was > 50% and the IC50 is < 1000 nM.
Consider `C[C@H]1COCCN1c1nc(Oc2ccc(C(=O)N(C)C)cc2F)nc(-c2ccc3[nH]ccc3c2)n1` [Compound 10100, (S)-4-((4-(1H-indol-5-yl)-6-(3-methylmorpholino)1,3,5-triazin-2-yl)oxy)3-fluoro-N,N-dimethylbenzamide], for which, on Recombinant mTOR (FRAP1), the inhibition at 1 µM is > 50%. Also, the IC50 (on Recombinant mTOR (FRAP1); in assay [1]) was < 1000 nM each time.
For `CN(C)C(=O)c1ccc(Oc2nc(-c3cnc(N)s3)nc(N3CCCOCC3)n2)cc1` [Compound 10192, 4-((4-(2-aminothiazol-5-yl)-6-(1,4-oxazepan-4-yl)-1,3,5-triazin-2-yl)oxy)-N,N-dimethylbenzamide], on Recombinant mTOR (FRAP1), the inhibition at 1 µM was < 50% and the IC50 is > 1000 nM. Besides, in assay [1], the IC50 was > 1000 nM.
As to `CS(=O)(=O)N1CCC(COc2nc(-c3ccc(N)nc3)nc(N3CCOCC3)n2)CC1` [Compound 10185, 5-(4-((1-(methylsulfonyl)piperidin-4-yl)methoxy)-6-morpholino-1,3,5-triazin-2-yl)pyridin-2-amine], the inhibition at 1 µM on Recombinant mTOR (FRAP1) is < 50%. In addition, the IC50 in assay [1] is < 1000 nM.
Consider `C[C@H]1COCCN1c1nc(Oc2ccc(C(=O)N(C)C)cc2F)nc(-c2cnc3[nH]ccc3c2)n1` [Compound 10103, (S)-3-Fluoro-N,N-dimethyl-4-((4-(3-methylmorpholino)-6-(1H-pyrrolo-[2,3-b]pyridin-5-yl)-1,3,5-triazin-2-yl)oxy)benzamide], for which the IC50 (on Recombinant mTOR (FRAP1); in assay [1]) was < 1000 nM throughout.
In the case of `CN(C)C(=O)Cc1ccc(Oc2nc(-c3ccc(N)nc3)nc(N3CCOCC3)n2)cc1` [Compound 10180, 2-(4-((4-(6-aminopyridin-3-yl)-6-morpholino-1,3,5-triazin-2-yl)oxy)phenyl)-N,N-dimethylacetamide], at Recombinant mTOR (FRAP1), the inhibition at 1 µM is > 50%. In addition, the IC50 (at Recombinant mTOR (FRAP1); in assay [1]) was < 1000 nM each time.
In the case of `CN(C)C(=O)Cc1ccc(Oc2nc(-c3cnc(N)nc3)nc(N3CCOCC3)n2)cc1` [Compound 10189, 2-(4-((4-(2-aminopyrimidin-5-yl)-6-morpholino-1,3,5-triazin-2-yl)oxy)phenyl)-N,N-dimethylacetamide], the inhibition at 1 µM at Recombinant mTOR (FRAP1) was < 50%. Also, the IC50 in assay [1] was < 1000 nM.
As for `CNC(=O)Nc1ncc(-c2nc(Oc3ccc(C(=O)N(C)C)cc3)nc(N3CCOC[C@@H]3C)n2)s1` [Compound 10091, (S)-N,N-dimethyl-4-((4-(3-methylmorpholino)-6-(2-(3-methylureido)thiazol-5-yl)-1,3,5-triazin-2-yl)oxy)benzamide], at Recombinant mTOR (FRAP1), the inhibition at 1 µM was > 50% and the IC50 is < 1000 nM. The IC50 in assay [1] was < 1000 nM.
Turning to `C[C@@H]1CN(c2nc(Oc3ccc(C(=O)N(C)C)cc3)nc(-c3cnc(N)s3)n2)CCO1` [Compound 10073, (R)-4-((4-(2-Aminothiazol-5-yl)-6-(2-methylmorpholino)-1,3,5-triazin-2-yl)oxy)-N,N-dimethylbenzamide], the inhibition at 1 µM (at Recombinant mTOR (FRAP1); in assay [1]) was > 50% throughout. Further, the IC50 (on Recombinant mTOR (FRAP1); in assay [1]) was < 1000 nM each time.
Turning to `C[C@@H]1COC[C@H](C)N1c1nc(Oc2ccc(C(=O)N(C)C)cc2)nc(-c2cnc(N)s2)n1` [Compound 10079, 4-((4-(2-Aminothiazol-5-yl)-6-((3S,5R)-3,5-dimethylmorpholino)-1,3,5-triazin-2-yl)oxy)-N,N-dimethybenzamide], the IC50 on Recombinant mTOR (FRAP1) was < 1000 nM. Besides, in assay [1], the inhibition at 1 µM was < 50% and the IC50 is > 1000 nM.
In the case of `C[C@@H]1CO[C@@H](C)CN1c1nc(Oc2ccc(C(=O)N(C)C)cc2F)nc(-c2ccc3[nH]ncc3c2)n1` [Compound 10161, 4-(4-(1H-indazol-5-yl)-6-((2S,5R)-2,5-dimethylmorpholino)-1,3,5-triazin-2-yloxy)-3-fluoro-N,N-dimethylbenzamide], the results for the IC50 (on Recombinant mTOR (FRAP1); in assay [1]) were < 1000 nM and > 10000 nM, respectively.

As a reminder, the IC50 is the point on the concentration scale where inhibition reaches its midpoint.
